Consider 2 molecules from US6730685B1, “Formulation of substituted benzimidazoles” (AstraZeneca AB, priority 1999, dated 2004).

A short description of the series: Solubility of omeprazole and omeprazole sodium in water, dichloromethane and polyethylene glycol 400. The class given is physicochemical. How it is done:
The solubility of omeprazole (the non-ionised species) has been determined to approximately 0.1 g/l in water and approximately 100 g/l in dichloromethane at room temperature (22° C.). […] Omeprazole sodium is ionised and is therefore much more soluble in water compared with omeprazole and the opposite is applicable in the less polar solvent dichloromethane. The solubility of omeprazole (the non-ionised species) has been determined to approximately 20 g/l in polyethylene glycol 400. This means that the solubility is much better in polyethylene glycol, a less polar solvent, than in water. […] This means that the solubility in polyethylene glycol is much higher for omeprazole sodium than for omeprazole. The high solubility of omeprazole sodium in polyethylene glycol is very favourable regarding the formulation aspects of a parenteral pharmaceutical product.

≈ marks a conversion by molar mass, not a printed value.

For `COc1ccc2[n-]c([S+]([O-])Cc3ncc(C)c(OC)c3C)nc2c1.[Na+]` (stereo not drawn) [Omeprazole sodium], for the setting “result in words”, the Solubility in dichloromethane entry is “only slightly soluble”, the “Solubility in polyethylene glycol 400” value is “freely soluble” and the Solubility in water result is “freely soluble”.
Usually solubility stands for how much of the substance goes into solution per volume. Take `COc1ccc2[nH]c([S+]([O-])Cc3ncc(C)c(OC)c3C)nc2c1` (stereo not drawn) [omeprazole]: the solubility runs as follows: (22 °C, organic solvent or mixture) around 100 mg/mL (≈ 289 mM); (22 °C, water) around 0.1 mg/mL (≈ 0.289 mM); (organic solvent or mixture) around 20 mg/mL (≈ 57.9 mM).
